Assays:
Human CCR3 = target: T1, Human CCR3 (Homo sapiens, UniProt P51677); assay: Receptor binding assay (RBA), [125I]-eotaxin; conditions: human CCR3-transformed K562 cells, 0.1 nM [125I]-eotaxin; compounds of about 40 to 90% purity; read-out: Activity grade RBA (IC50 class)
T1 construct: The cloned CCR3 cDNA was constructed with pcDNA3 vector and transfected into a IC562 cell line; expressed in transfected cells
T1 sequence (P51677 1-355): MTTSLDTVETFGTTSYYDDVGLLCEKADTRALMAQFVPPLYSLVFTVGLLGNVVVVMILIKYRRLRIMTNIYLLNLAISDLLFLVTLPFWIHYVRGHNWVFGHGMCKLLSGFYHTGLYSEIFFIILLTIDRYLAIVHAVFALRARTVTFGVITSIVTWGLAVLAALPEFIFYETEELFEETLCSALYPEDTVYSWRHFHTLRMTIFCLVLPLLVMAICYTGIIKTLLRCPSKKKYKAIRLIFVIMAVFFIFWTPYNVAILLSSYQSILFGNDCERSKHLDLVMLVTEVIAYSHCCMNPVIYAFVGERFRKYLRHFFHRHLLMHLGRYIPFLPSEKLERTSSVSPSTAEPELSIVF
Summary of the method: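 Butyrate-pretreated (5 mM, 20-24 h) CCR3-transfected K562 cells incubated 1 h at room temperature with compound and 0.1 nM final [125I]-eotaxin in HEPES pH 7.6 buffer; bound radioactivity counted after filtration. Non-specific binding with 500 nM unlabeled eotaxin; IC50 from inhibition curve.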

| IC50 (Human CCR3) | melting point | Compound |
| --- | --- | --- |
| < 1000 nM | 93 to 95 °C | CCCC(C)N1CCN(S(=O)(=O)c2cc([N+](=O)[O-])ccc2Oc2cc(C)cc(C)c2)CC1 (stereo not shown) [Example 4-17] |
| < 1000 nM | 133 to 134 °C | CCN1CCN(S(=O)(=O)c2cc(I)ccc2Oc2cc(C)cc(C)c2)CC1 [Example 5-5] |
| > 10000 nM | – | O=[N+]([O-])c1ccc(Nc2ccccc2Cl)c(S(=O)(=O)N2CCNCC2)c1 [Example 3-6] |
| < 1000 nM | 200 to 202 °C | O=[N+]([O-])c1ccc(Oc2cc(Cl)cc(Cl)c2)c(S(=O)(=O)N2CCC[C@H]2CN2CCCC2)c1 [Example 4-22] |
| 1000 to 10000 nM | – | Cc1cc(C)cc(Oc2ccc([N+](=O)[O-])cc2S(=O)(=O)NCCN2CCOCC2)c1 [Example 4-3] |
| < 1000 nM | 129 to 131 °C | Cc1cc(C)cc(Oc2ccc([N+](=O)[O-])cc2S(=O)(=O)N2CCN(C(C)C)CC2)c1 [Example 4-15] |
| 1000 to 10000 nM | – | Cc1ccccc1Nc1ccc([N+](=O)[O-])cc1S(=O)(=O)N1CCNCC1 [Example 3-3] |
| < 1000 nM | 86 to 88 °C | CCN1CCC(N(CC)S(=O)(=O)c2cc([N+](=O)[O-])ccc2Oc2cc(C)cc(C)c2)C1 (stereo not shown) [Example 4-12] |
| > 10000 nM | 133 to 135 °C | Cc1cc(C)cc(Oc2ccc(N)cc2S(=O)(=O)N2CCNCC2)c1.O=C(O)C(F)(F)F [Example 5-3] |
| < 1000 nM | 75 to 77 °C | Cc1cc(C)cc(Oc2ccc([N+](=O)[O-])cc2S(=O)(=O)N(C)CCN(C)C)c1 [Example 4-14] |
| 1000 to 10000 nM | 163 to 165 °C | N#Cc1ccc(Oc2cc(Cl)cc(Cl)c2)c(S(=O)(=O)N2C[C@@H]3CCCN[C@@H]3C2)c1 [Example 13-5] |
| < 1000 nM | 145 °C | COCCCN1CCN(S(=O)(=O)c2cc([N+](=O)[O-])ccc2Oc2cc(Cl)cc(Cl)c2)CC1 [Example 4-36] |
| < 1000 nM | 262 to 264 °C | Cc1cc(C)cc(Oc2ccc([N+](=O)[O-])cc2S(=O)(=O)N2CCC(N(C)C)CC2)c1.Cl [Example 4-24] |
| < 1000 nM | 178 to 179 °C | Cc1cc(C)cc(Oc2ccc([N+](=O)[O-])cc2S(=O)(=O)N2CCN(CC3CCCO3)CC2)c1 (stereo not shown) [Example 4-26] |
| < 1000 nM | 134 to 135 °C | CCC(C)N1CCN(S(=O)(=O)c2cc([N+](=O)[O-])ccc2Oc2cc(C)cc(C)c2)CC1 (stereo not shown) [Example 4-16] |
| < 1000 nM | – | O=[N+]([O-])c1ccc(Oc2cc(Cl)cc(Cl)c2)c(S(=O)(=O)N2CCC(N3CCCC3)C2)c1 (stereo not shown) [Example 4-38] |
| < 1000 nM | 131 to 132 °C | Cc1cc(C)cc(Oc2ccc([N+](=O)[O-])cc2S(=O)(=O)N2CCN(C)CC2)c1 [Example 4-4] |
| 1000 to 10000 nM | 90 to 93 °C | N#Cc1ccc(Oc2cc(Cl)cc(Cl)c2)c(S(=O)(=O)N2CCCC3CN(Cc4ccccc4)CC32)c1 (stereo not shown) [Example 13-2] |
| < 1000 nM | 120 to 121 °C | CCN(CC)C1CCN(S(=O)(=O)c2cc([N+](=O)[O-])ccc2Oc2cc(Cl)cc(Cl)c2)C1 (stereo not shown) [Example 4-21] |

| IC50 (Human CCR3) | melting point | Compound |
| --- | --- | --- |
| < 1000 nM | – | O=[N+]([O-])c1ccc(Nc2cc(Cl)cc(Cl)c2)c(S(=O)(=O)N2CCNCC2)c1 [Example 3-2] |
| < 1000 nM | 263 °C | N[C@H]1CCN(S(=O)(=O)c2cc([N+](=O)[O-])ccc2Sc2cc(Cl)cc(Cl)c2)C1 [Example 2-12] |
| < 1000 nM | 190 to 192 °C | Cc1cc(C)cc(Oc2ccc([N+](=O)[O-])cc2S(=O)(=O)N2CCN(C3CCCCC3)CC2)c1 [Example 4-6] |
| > 10000 nM | 183 °C | Cc1cc(C)cc(Oc2cc(C)c(N)cc2S(=O)(=O)N2CCNCC2)c1.Cl.Cl [Example 5-7] |
| < 1000 nM | 166 to 167 °C | O=[N+]([O-])c1ccc(Oc2cc(Cl)cc(Cl)c2)c(S(=O)(=O)N2CCN(CCC(F)(F)F)CC2)c1 [Example 4-34] |
| > 10000 nM | – | Cc1cc(C)cc(Oc2ccc(NC(=O)CCc3ccccc3)cc2S(=O)(=O)N2CCNCC2)c1 [Example 7-8] |
| < 1000 nM | 270 °C | Cl.N[C@@H]1CCN(S(=O)(=O)c2cc([N+](=O)[O-])ccc2Sc2cc(Cl)cc(Cl)c2)C1 [Example 2-11] |
| > 10000 nM | – | Cc1cc(C)cc(Oc2ccc(NC(=O)CC(C)C)cc2S(=O)(=O)N2CCNCC2)c1 [Example 7-4] |
| < 1000 nM | 102 °C | CN(C)CCN(C)S(=O)(=O)c1cc([N+](=O)[O-])ccc1Sc1cc(Cl)cc(Cl)c1 [Example 2-23] |
| < 1000 nM | 240 °C | COCCCN1CCN(S(=O)(=O)c2cc(C#N)ccc2Oc2cc(Cl)cc(Cl)c2)CC1 [Example 13-7] |
| < 1000 nM | – | CN1CCC(N(C)S(=O)(=O)c2cc([N+](=O)[O-])ccc2Oc2cc(Cl)cc(Cl)c2)C1 (stereo not shown) [Example 4-23] |
| < 1000 nM | 115 to 116 °C | Cc1cc(C)cc(Oc2ccc([N+](=O)[O-])cc2S(=O)(=O)N2CC[C@@H](N(C)C)C2)c1 [Example 4-13] |
| > 10000 nM | – | Cc1cc(C)cc(Oc2ccc(NC(=O)c3cccc4ccccc34)cc2S(=O)(=O)N2CCNCC2)c1 [Example 7-7] |
| < 1000 nM | 169 to 171 °C | Cc1cc(C)cc(Oc2ccc([N+](=O)[O-])cc2S(=O)(=O)N2CCN(C3CCCC3)CC2)c1 [Example 4-19] |
| < 1000 nM | 182 to 183 °C | O=[N+]([O-])c1ccc(Oc2cc(Cl)cc(Cl)c2)c(S(=O)(=O)N2CCN(CC3CCCO3)CC2)c1 (stereo not shown) [Example 4-27] |
| < 1000 nM | – | O=[N+]([O-])c1ccc(Sc2cc(Cl)cc(Cl)c2)c(S(=O)(=O)NCCN2CCCCC2)c1 [Example 2-24] |
| < 1000 nM | 120 to 122 °C | CCN1CCN(S(=O)(=O)c2cc(Cl)ccc2Oc2cc(C)cc(C)c2)CC1 [Example 5-4] |
| < 1000 nM | 105 to 107 °C | CN(C)CCN(C)S(=O)(=O)c1cc([N+](=O)[O-])ccc1Oc1cc(Cl)cc(Cl)c1 [Example 4-20] |
| < 1000 nM | 131 to 132 °C | CCC(CC)N1CCN(S(=O)(=O)c2cc([N+](=O)[O-])ccc2Oc2cc(C)cc(C)c2)CC1 [Example 4-18] |

| IC50 (Human CCR3) | melting point | Compound |
| --- | --- | --- |
| > 10000 nM | – | Cc1ccc(C(=O)Nc2ccc(Oc3cc(C)cc(C)c3)c(S(=O)(=O)N3CCNCC3)c2)cc1 [Example 7-6] |
| > 10000 nM | – | CC(=O)Nc1ccc(Oc2cc(C)cc(C)c2)c(S(=O)(=O)N2CCNCC2)c1 [Example 7-2] |
| < 1000 nM | 111 to 112 °C | CCN1CCN(S(=O)(=O)c2cc([N+](=O)[O-])ccc2Oc2cc(C)cc(C)c2)CC1 [Example 4-5] |
| < 1000 nM | 311 to 312 °C | N#Cc1ccc(Oc2cc(Cl)cc(Cl)c2)c(S(=O)(=O)N2C[C@H]3C[C@@H]2CN3)c1 [Example 13-4] |
| < 1000 nM | 173 to 174 °C | O=[N+]([O-])c1ccc(Oc2cc(Cl)cc(Cl)c2)c(S(=O)(=O)N2CCC(N3CCCCC3)CC2)c1 [Example 4-29] |
| 1000 to 10000 nM | – | Cc1cccc(Nc2ccc([N+](=O)[O-])cc2S(=O)(=O)N2CCNCC2)c1 [Example 3-4] |
| > 10000 nM | – | Cc1cc(C)cc(Oc2ccc(NC(=O)c3ccccc3)cc2S(=O)(=O)N2CCNCC2)c1 [Example 7-5] |
| < 1000 nM | 116 to 118 °C | Cc1cc(C)cc(Oc2ccc(F)cc2S(=O)(=O)N2CCNCC2)c1 [Example 6-3] |
| < 1000 nM | 213 °C | O=[N+]([O-])c1ccc(Sc2cc(Cl)cc(Cl)c2)c(S(=O)(=O)N2CCC(N3CCCC3)CC2)c1 [Example 2-22] |
| < 1000 nM | 241 to 243 °C | Cc1cc(C)cc(Oc2ccc(I)cc2S(=O)(=O)N2CCNCC2)c1.Cl [Example 5-6] |
| < 1000 nM | – | Cc1cc(C)cc(Oc2ccc([N+](=O)[O-])cc2S(=O)(=O)N2CCN(CCC(F)(F)F)CC2)c1 [Example 4-33] |
| 1000 to 10000 nM | 242 to 247 °C | Cc1cc(C)cc(Oc2ccc(S(=O)(=O)N(C)C)cc2S(=O)(=O)N2CCNCC2)c1.Cl [Example 10-2] |
| > 10000 nM | 168 to 169 °C | Cc1cc(C)cc(Oc2ccc([N+](=O)[O-])cc2S(=O)(=O)N2CCN(c3ccccc3)CC2)c1 [Example 4-7] |
| > 10000 nM | – | Cc1ccc(Nc2ccc([N+](=O)[O-])cc2S(=O)(=O)N2CCNCC2)cc1 [Example 3-5] |
| > 10000 nM | – | Cc1cc(C)cc(Oc2ccc(NC(=O)c3cccs3)cc2S(=O)(=O)N2CCNCC2)c1 [Example 7-9] |
| > 10000 nM | 168 to 170 °C | Cc1ccc(N2CCN(S(=O)(=O)c3cc([N+](=O)[O-])ccc3Oc3cc(C)cc(C)c3)CC2)cc1 [Example 4-8] |
| > 10000 nM | – | Cc1cc(C)cc(Oc2ccc(NC(=O)C(C)(C)C)cc2S(=O)(=O)N2CCNCC2)c1 [Example 7-3] |
| < 1000 nM | – | Cc1cc(C)cc(Oc2ccc([N+](=O)[O-])cc2S(=O)(=O)NCCN2CCCCC2)c1 [Example 4-2] |
| < 1000 nM | – | CC1CCCCN1CCCNS(=O)(=O)c1cc([N+](=O)[O-])ccc1Sc1cc(Cl)cc(Cl)c1 (stereo not shown) [Example 2-13] |

Reference: patent US8242118B2, “Arylsulfonamide derivatives for use as CCR3 antagonists in the treatment of inflammatory and immunological disorders” (Axikin Pharmaceuticals Inc., priority 2001, dated 2012)
